From US20200129531A1, “USE OF WITHANIA SOMNIFERA EXTRACT TO PROTECT AGAINST AIR POLLUTION RELATED DISEASES” (DSM IP Assets B.V., priority 2017, published 2020)

Experiments:
NQO1 = experiment: Endogenous Nrf2 activation assay using BEAS-2B cells: NQO1 mRNA expression; format: cell-based, human; settings: 0.1% DMSO set to 1
Description: (§1) The human bronchial epithelial cell line BEAS-2B was from ATCC (American Type Culture Collection, Manassas, Va.) and cultured in Bronchial Epithelial cell Growth Medium (BEGM, Lonza, Wakersville, Md.) in CellIBIND® surface plastic flasks (Corning Inc., Corning, N.Y.). BEAS-2B cells were seeded in 6-well CellIBIND® surface culture plates (Corning Inc.) at 1×10^6 cells per well and incubated at 37° C. with 5% CO2 for 24 hours.
(§2) A 100 mM R-Sulforaphane stock solution was prepared in DMSO (ABCAM, Cat. No. ab141971, Lot GR303041-2). The R-Sulforaphane stock was diluted in DMSO to obtain the desired final concentrations. Withania somnifera extract (NIG-018911) stock solution was prepared in DMSO.
(§3) After 24 h, cells were treated with different concentrations of Withania somnifera extract (5 μg/ml, 10 μg/ml, 25 μg/ml), R-Sulforaphane (2 μM, 5 μM, 10 μM) or DMSO (0.1%) and incubated at 37° C. with 5% CO2 for 4 hrs or 24 hrs. Each treatment was done in triplicate.
(§4) RNA extraction, cDNA synthesis and TaqMan based real-time PCR: After 4 hrs and 24 hrs cells were harvested in RLT buffer, RNA isolation was done using the RNeasy Mini Kit from Qiagen (Cat. No. 74106). cDNA was prepared with 2500 ng total RNA using SuperScript™ First-Strand Synthesis System for RT-PCR (Invitrogen, Cat. No. 11904-018)
(§5) In a 20 μL PCR reaction, a total input of […] of cDNA was amplified in the ABI 7900 HT real-time PCR System (Applied Biosystems) using the TaqMan® Fast Advanced Master Mix (LifeTechnologies Cat. No. 4444557), 50 nM primers, and 100 nM probe (VIC-TAMRA-labeled) for the 18S rRNA internal control
(§6) and 300 nM primers and 100 nM probe (FAM-TAMRA-labeled) for the gene of interest human
(§7) The thermal cycling profile consisted of 2 min at 50° C. for Uracil-N-glycosylase activation, 95° C. for 20 seconds for polymerase activation followed by 40 cycles 95° C. for 1 second and primer annealing at 60° C. for 20 seconds.
(§8) Relative gene expression was performed by subtracting threshold cycles (CT) for ribosomal RNA from the CT of the targeted gene (ΔCT). Relative mRNA levels were then calculated as 2^−ΔΔCT, where ΔΔCT refers to the ΔCT of […].

HMOX = experiment: Endogenous Nrf2 activation assay using BEAS-2B cells: HMOX mRNA expression; format: cell-based, human; settings: 0.1% DMSO set to 1
Description: as §1, §2, §3, §4, §5, §6, §7, §8

IL-6 [1] = experiment: IL-6 secretion of BEAS-2B cells treated with Diesel Particulate Matter; format: cell-based, human; settings: for IL-6 / IL-6 % of PM + DMSO: 24 h
Description: (§9) The human bronchial epithelial cell line BEAS-2B was from ATCC (American Type Culture Collection, Manassas, Va.) and cultured in Bronchial Epithelial cell Growth Medium (BEGM, Lonza, Wakersville, Md.) in CellBIND® surface plastic flasks (Corning Inc., Corning, N.Y.). The adenocarcinomic human alveolar basal epithelial A549 cell line was obtained from ATCC and cultured in Kaighn's Modification of Ham's F-12 Medium (F-12K medium) (Life Technologies, USA), supplemented with 10% FBS (Sigma, Saint-Louis, Mo.). These cells were cultured at 37° C. in a humidified atmosphere containing 5% CO2.
(§10) BEAS-2B cells were seeded in 12-well CellBIND® surface culture plates (Corning Inc.) at 3 to 4×10^5 cells per well. A549 cells were seeded in 12-well plates at 2×10^5 cells per well.
(§11) Diesel Particulate Matter (Standard Reference Material SRM 1650b, National Institute of Standards & Technology, NIST, Gaithersburg, Md.) at 80 mg/ml DMSO (100%) were sonicated for 5 min and thereafter diluted 400 fold in medium. This dilution was twofold further diluted for the assay.
(§12) After 24 h, cells were treated with the diluted Diesel Particulate Matter at 100 μg/ml and in the presence of different concentrations of Withania somnifera extracts, other plant extracts, fractions and compounds as indicated. The final DSMO concentrations were 0.175%.
(§13) Untreated cells or cells treated with 0.175% DMSO were used as controls. After 24 h, cell supernatants were collected.
(§14) The concentrations of IL-6 and IL-8 in the supernatants were determined by Luminex kits (BIO-RAD Laboratories, Hercules, Calif.) and used in the LiquiChip Workstation IS 200 (Qiagen, Hilden, Germany). The data were evaluated with the LiquiChip Analyser software (Qiagen).

IL-6 [2] = experiment: IL-6 secretion of A549 cells treated with Diesel Particulate Matter; format: cell-based, human; settings: for IL-6 / IL-6 % of PM + DMSO: Table 5, A549, 24 h
Description: as §9, §10, §11, §12, §13, §14

IL-8 = IL-8 secretion of A549 cells treated with Diesel Particulate Matter; format: cell-based, human; settings: for IL-8 / IL-8 % of PM + DMSO: Table 7, A549, 24 h
Description: as §9, §10, §11, §12, §13, §14

MCP-1 = MCP-1 secretion of A549 cells treated with Diesel Particulate Matter; format: cell-based, human; settings: for effect on PM-induced MCP-1 secretion (in words): A549; for MCP-1 / MCP-1 % of PM + DMSO: Table 9, A549, 24 h
Description: The human bronchial epithelial cell line BEAS-2B was from ATCC (American Type Culture Collection, Manassas, Va.) and cultured in Bronchial Epithelial cell Growth Medium (BEGM, Lonza, Wakersville, Md.) in CellBIND® surface plastic flasks (Corning Inc., Corning, N.Y.). The adenocarcinomic human alveolar basal epithelial A549 cell line was obtained from ATCC and cultured in Kaighn's Modification of Ham's F-12 Medium (F-12K medium) (Life Technologies, USA), supplemented with 10% FBS (Sigma, Saint-Louis, Mo.). These cells were cultured at 37° C. in a humidified atmosphere containing 5% CO2. BEAS-2B cells were seeded in 12-well CellBIND® surface culture plates (Corning Inc.) at 3 to 4×10^5 cells per well. A549 cells were seeded in 12-well plates at 2×10^5 cells per well. […] This dilution was twofold further diluted for the assay. After 24 h, cells were treated with the diluted Diesel Particulate Matter at 100 μg/ml and in the presence of different concentrations of Withania somnifera extracts, other plant extracts, fractions and compounds as indicated. The final DSMO concentrations were 0.175%. Untreated cells or cells treated with 0.175% DMSO were used as controls. After 24 h, cell supernatants were collected.

Nrf2 = experiment: Luciferase reporter assay using H411E-ARE8L cells (Nrf2 activation); settings: for Nrf-2 activity, Normalized data: R-sulforaphane set to 1.0, DMSO 0
Description: Luciferase Reporter Assay Using H411E-ARE8L Cells:
The medium for H411E-ARE8L cells was Dulbecco's Modified Eagle Medium (DMEM) high glucose containing heat inactivated 10% fetal bovine Serum (FBS). The media was exchanged every two to three-days. The DMEM assay medium used charcoal treated FBS (DMEMct). The transactivation assay was performed in 96 well plates. The plates were seeded with approximately 40′000 cells per well in 100 μl DMEMct and incubated over night at 37° C. Then the test compounds were diluted in DMEDct and given to the cells as described below. The cells were incubated for at least further 16 h at 37° C. and 5% CO2. Cells were equilibrated to room temperature. Lysis of the cells was done by adding 100 μL lysis solution, Steady-Glo© luciferase buffer according to the manufacturer (Promega) containing 0.5 mM DTT per well and incubated for 10 min at room temperature with gentle shaking. The luminescence was measured within 2 hours after incubation on a luminometer (Mithras, Berthold Technologies).
The negative control were cells in 0.5% DMSO.
All extracts, fractions and pure compounds were tested for concentrations that induce toxicity. Non-toxic concentrations were then selected for treating cells as describes in the methods section.

BEAS-2B cells = experiment: Toxicity / cell survival of BEAS-2B cells; format: cell-based, human; settings: at concentrations higher than 0.3 μg/ml
Description: (§15) Cell survival assays of the BEAS-2B and A549 cells were performed with AlamarBlue® Cell Viability Reagent (ThermoFisher Scientific) according to the protocol of the manufacturer. Non-toxic concentrations of the extracts, fractions and single compounds were selected for the assays.

A549 cells = experiment: Toxicity / cell survival of A549 cells; format: cell-based, human; settings: concentrations higher than 0.31 μg/ml
Description: as §15

PGE2 = PGE2 secretion of BEAS-2B cells treated with Diesel Particulate Matter; format: cell-based, human; settings: Table 10, BEAS-2B, 24 h
Description: as §9, §10, §11, §12, §13
Secreted PGE2 was determined by Enzyme Immuno Assay (EIA) (Cayman Chemicals, Ann Harbor, […].).

[3] = Table 3, 0.3125 μg/ml + PM 100 μg/ml
[4] = Table 3, 10 μg/ml + PM 100 μg/ml

C[S@@+]([O-])CCCCN=C=S [R-Sulforaphane, R-sulforaphane]
Relative mRNA expression level at 4 h (NQO1) (NQO1; 2 μM): 1.60
Relative mRNA expression level at 24 h (NQO1) (NQO1; 2 μM): 4.66
Relative mRNA expression level at 4 h (NQO1) (NQO1; 5 μM): 2.26
Relative mRNA expression level at 24 h (NQO1) (NQO1; 5 μM): 7.62
Relative mRNA expression level at 4 h (NQO1) (NQO1; 10 μM): 1.78
Relative mRNA expression level at 24 h (NQO1) (NQO1; 10 μM): 8.77
Relative mRNA expression level at 4 h (HMOX) (HMOX; 2 μM): 9.48
Relative mRNA expression level at 24 h (HMOX) (HMOX; 2 μM): 2.63
Relative mRNA expression level at 4 h (HMOX) (HMOX; 5 μM): 22.44
Relative mRNA expression level at 24 h (HMOX) (HMOX; 5 μM): 5.23
Relative mRNA expression level at 4 h (HMOX) (HMOX; 10 μM): 27.43
Relative mRNA expression level at 24 h (HMOX) (HMOX; 10 μM): 7.12
effect on PM-induced IL-6 secretion (in words) (IL-6 [1]; concentration not given): significantly reduced
reduction of PM-induced IL-6 secretion (IL-6 [2]; A549, concentration not given): about twofold
reduction of PM-induced cytokine secretion (IL-8 paragraph) (IL-8; A549, concentration not given): twofold
effect on PM-induced MCP-1 secretion (in words) (MCP-1): clear inhibition
Nrf-2 activity, Average (Nrf2; Conc. final 4.55 μg/ml): 29384 relative units of luciferase fluorescence
Nrf-2 activity, Normalized data (Nrf2; Conc. final 4.55 μg/ml): 1.0000

CC1=C(CO)C(=O)O[C@@H]([C@@H](C)[C@H]2CC[C@H]3[C@@H]4C[C@H]5O[C@]56[C@@H](O)C=CC(=O)[C@]6(C)[C@H]4CC[C@]23C)C1 [Withaferin A, withaferin A]
toxicity to BEAS-2B cells (BEAS-2B cells): toxic
toxicity to A549 cells (A549 cells): toxic
effect on PM-induced IL-6 secretion (in words) (IL-6 [1]; 0.3 μg/ml): lowered
IL-6 (IL-6 [1]; [3]): 19.4 pg/mL
IL-6 % of PM + DMSO (IL-6 [1]; [3]): 77%
effect on PM-induced IL-6 secretion (in words) (IL-6 [2]; A549): decrease
IL-6 (IL-6 [2]; 0.3125 μg/ml + PM 100 μg/ml): 3.5 pg/mL
IL-6 % of PM + DMSO (IL-6 [2]; 0.3125 μg/ml + PM 100 μg/ml): 29%
inhibition of IL-8 secretion (in words) (IL-8; A549, PM-induced, 0.31 μg/ml): highest inhibition of the pure compounds
IL-8 (IL-8; 0.3125 μg/ml + PM 100 μg/ml): 106.7 pg/mL
IL-8 % of PM + DMSO (IL-8; 0.3125 μg/ml + PM 100 μg/ml): 39%
effect on PM-induced MCP-1 secretion (in words) (MCP-1): significant decrease
MCP-1 (MCP-1; 0.3125 μg/ml + PM 100 μg/ml): 632 pg/mL
MCP-1 % of PM + DMSO (MCP-1; 0.3125 μg/ml + PM 100 μg/ml): 66%
PGE2 (PGE2; 0.3125 μg/ml + PM 100 μg/ml): 33.2 pg/mL
PGE2 % of PM + DMSO (PGE2; 0.3125 μg/ml + PM 100 μg/ml): 87%
Nrf-2 activity, Average (Nrf2; Conc. final 0.28 μg/ml): 32053 relative units of luciferase fluorescence

CC1=C(C)C(=O)O[C@@H]([C@](C)(O)[C@H]2CC[C@H]3[C@@H]4[C@@H]5O[C@@H]5[C@@]5(O)CC=CC(=O)[C@]5(C)[C@H]4CC[C@]23C)C1 [Withanolide A, withanolide A]
IL-6 (IL-6 [1]; [4]): 32.8 pg/mL
IL-6 % of PM + DMSO (IL-6 [1]; [4]): 131%
effect on PM-induced IL-6 secretion (in words) (IL-6 [2]; A549): decrease
IL-6 (IL-6 [2]; 10 μg/ml + PM 100 μg/ml): 15.2 pg/mL
IL-6 % of PM + DMSO (IL-6 [2]; 10 μg/ml + PM 100 μg/ml): 120%
effect on IL-8 secretion (in words) (IL-8; A549, PM-induced): no effect
IL-8 (IL-8; 10 μg/ml + PM 100 μg/ml): 313.7 pg/mL
IL-8 % of PM + DMSO (IL-8; 10 μg/ml + PM 100 μg/ml): 103%
effect on PM-induced MCP-1 secretion (in words) (MCP-1): low, but non-significant decrease
MCP-1 (MCP-1; 10 μg/ml + PM 100 μg/ml): 790.7 pg/mL
MCP-1 % of PM + DMSO (MCP-1; 10 μg/ml + PM 100 μg/ml): 91%
PGE2 (PGE2; 10 μg/ml + PM 100 μg/ml): 34.7 pg/mL
PGE2 % of PM + DMSO (PGE2; 10 μg/ml + PM 100 μg/ml): 91%
Nrf-2 activity, Average (Nrf2; Conc. final 22.73 μg/ml): 4677 relative units of luciferase fluorescence
Nrf-2 activity, Normalized data (Nrf2; Conc. final 22.73 μg/ml): 0.0629
